Data taken from US8828908B2, “Herbicidally active bicyclic 1,3-dione compounds” (Syngenta Limited, priority 2007, dated 2014).

How the values were obtained:
Type in all cases: in vivo
[1] = tested on: Alopecurus myosuroides (ALOMY); test: Example A pre-emergence herbicidal glasshouse test; conditions: 312 h, Rate 250 g/ha, evaluated after 13 days, 100=total damage to plant, 0=no damage to plant
Procedure, shortened: (§1)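 One day (pre) or eight days (post) after sowing, pots received a spray of test compound formulated in acetone/water 50:50 with 0.5% Tween 20; plants were then kept under controlled glasshouse conditions with watering twice daily and assessed for damage (0–100) at 13 days.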

[2] = tested on: Amaranthus retroflexus (AMARE); test: Example A pre-emergence herbicidal glasshouse test; conditions: 312 h, Rate 250 g/ha, evaluated after 13 days, 100=total damage to plant, 0=no damage to plant
Procedure, shortened: as §1

Avena fatua (AVEFA) [3] = test: Example A pre-emergence herbicidal glasshouse test; conditions: 312 h, Rate 250 g/ha, evaluated after 13 days, 100=total damage to plant, 0=no damage to plant
Procedure, shortened: as §1

[4] = tested on: Echinochloa crus-galli (ECHCG); test: Example A pre-emergence herbicidal glasshouse test; conditions: 312 h, Rate 250 g/ha, evaluated after 13 days, 100=total damage to plant, 0=no damage to plant
Procedure, shortened: as §1

Setaria faberi (SETFA) [5] = test: Example A pre-emergence herbicidal glasshouse test; conditions: 312 h, Rate 250 g/ha, evaluated after 13 days, 100=total damage to plant, 0=no damage to plant
Procedure, shortened: as §1

Solanum nigrum (SOLNI) [6] = test: Example A pre-emergence herbicidal glasshouse test; conditions: Rate 250 g/ha, evaluated after 13 days, 100=total damage to plant, 0=no damage to plant
Procedure, shortened: as §1

[7] = tested on: Alopecurus myosuroides (ALOMY); test: Example A post-emergence herbicidal glasshouse test; conditions: 312 h, evaluated after 13 days, 100=total damage to plant, 0=no damage
Procedure, shortened: as §1

[8] = tested on: Amaranthus retroflexus (AMARE); test: as above; conditions: 312 h, evaluated after 13 days, 100=total damage to plant, 0=no damage
Procedure, shortened: as §1

Avena fatua (AVEFA) [9] = test: as above; conditions: 312 h, evaluated after 13 days, 100=total damage to plant, 0=no damage
Procedure, shortened: as §1

[10] = tested on: Echinochloa crus-galli (ECHCG); test: as above; conditions: 312 h, evaluated after 13 days, 100=total damage to plant, 0=no damage
Procedure, shortened: as §1

Setaria faberi (SETFA) [11] = test: as above; conditions: 312 h, evaluated after 13 days, 100=total damage to plant, 0=no damage
Procedure, shortened: as §1

Solanum nigrum (SOLNI) [12] = test: as above; conditions: 250 g/ha, evaluated after 13 days, 100=total damage to plant, 0=no damage
Procedure, shortened: as §1

[13] = tested on: Alopecurus myosuroides (ALOMY); test: Example B pre-emergence herbicidal greenhouse test; conditions: 480 h, evaluated after 20 days, 100=total damage to plant, 0=no damage
Procedure, shortened: (§2)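 Spray of formulated compound 1 day after sowing (pre-emergence) or onto seedlings 10 days after sowing (post-emergence); greenhouse growth under optimum conditions; evaluation at 20 days (pre) or 15 days (post), 0-100 damage.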

Avena fatua (AVEFA) [14] = test: Example B pre-emergence herbicidal greenhouse test; conditions: 480 h, evaluated after 20 days, 100=total damage to plant, 0=no damage
Procedure, shortened: as §2

[15] = tested on: Digitaria sanguinalis (DIGSA); test: Example B pre-emergence herbicidal greenhouse test; conditions: 480 h, evaluated after 20 days, 100=total damage to plant, 0=no damage
Procedure, shortened: as §2

[16] = tested on: Echinochloa crus-galli (ECHCG); test: Example B pre-emergence herbicidal greenhouse test; conditions: 480 h, evaluated after 20 days, 100=total damage to plant, 0=no damage
Procedure, shortened: as §2

Lolium perenne (LOLPE) [17] = test: Example B pre-emergence herbicidal greenhouse test; conditions: 480 h, evaluated after 20 days, 100=total damage to plant, 0=no damage
Procedure, shortened: as §2

Setaria faberi (SETFA) [18] = test: Example B pre-emergence herbicidal greenhouse test; conditions: 480 h, evaluated after 20 days, 100=total damage to plant, 0=no damage
Procedure, shortened: as §2

[19] = tested on: Alopecurus myosuroides (ALOMY); test: Example B post-emergence herbicidal greenhouse test; conditions: 360 h, evaluated after 15 days, 100=total damage to plant, 0=no damage
Procedure, shortened: as §2

Avena fatua (AVEFA) [20] = test: as above; conditions: 360 h, evaluated after 15 days, 100=total damage to plant, 0=no damage
Procedure, shortened: as §2

[21] = tested on: Digitaria sanguinalis (DIGSA); test: as above; conditions: 360 h, evaluated after 15 days, 100=total damage to plant, 0=no damage
Procedure, shortened: as §2

[22] = tested on: Echinochloa crus-galli (ECHCG); test: as above; conditions: 360 h, evaluated after 15 days, 100=total damage to plant, 0=no damage
Procedure, shortened: as §2

Lolium perenne (LOLPE) [23] = test: as above; conditions: 360 h, evaluated after 15 days, 100=total damage to plant, 0=no damage
Procedure, shortened: as §2

Setaria faberi (SETFA) [24] = test: as above; conditions: 360 h, evaluated after 15 days, 100=total damage to plant, 0=no damage
Procedure, shortened: as §2

Structure (SMILES)	pest or weed control at 250 g/ha [1]	pest or weed control at 250 g/ha [2]	pest or weed control at 250 g/ha (Avena fatua (AVEFA) [3])	pest or weed control at 250 g/ha [4]	pest or weed control at 250 g/ha (Setaria faberi (SETFA) [5])	SOLNI damage to plant (Solanum nigrum (SOLNI) [6])	pest or weed control at 250 g/ha [7]	pest or weed control at 250 g/ha [8]	pest or weed control at 250 g/ha (Avena fatua (AVEFA) [9])	pest or weed control at 250 g/ha [10]	pest or weed control at 250 g/ha (Setaria faberi (SETFA) [11])	SOLNI damage to plant (Solanum nigrum (SOLNI) [12])	pest or weed control at 250 g/ha [13]	pest or weed control at 250 g/ha (Avena fatua (AVEFA) [14])	pest or weed control at 250 g/ha [15]	pest or weed control at 250 g/ha [16]	pest or weed control at 250 g/ha (Lolium perenne (LOLPE) [17])	pest or weed control at 250 g/ha (Setaria faberi (SETFA) [18])	pest or weed control at 125 g/ha [19]	pest or weed control at 125 g/ha (Avena fatua (AVEFA) [20])	further results
CCc1ccc(-c2ccc(C)c(C3=C(O)[C@H]4CC[C@H](C4)C3=O)c2)cc1 (single isomer, unassigned) [Compound T14]	0%	0%	0%	0%	0%	0	0%	0%	0%	30%	70%	0									
Cc1ccc(-c2ccccc2F)cc1C1=C(O)[C@H]2CC[C@H](C2)C1=O (single isomer, unassigned) [Compound T16]	0%	0%	0%	0%	0%	0	0%	0%	0%	0%	0%	0									
Cc1ccc(-c2ccc(F)cc2)cc1C1=C(O)[C@H]2CC[C@H](C2)C1=O (single isomer, unassigned) [Compound T17]	0%	0%	10%	50%	80%	0	10%	0%	0%	70%	80%	0									
Cc1ccc(-c2ccc(Cl)cc2)cc1C1=C(O)[C@H]2CC[C@H](C2)C1=O [Compound T1, 3-(4′-chloro-4-methylbiphen-3-yl)bicyclo[3.2.1]octane-2,4-dione]	50%	0%	40%	90%	90%	0	80%	50%	90%	100%	100%	20	80%	30%	50%	100%	100%	100%	50%	30%	pest or weed control at 125 g/ha [21]: 90%; pest or weed control at 125 g/ha [22]: 90%; pest or weed control at 125 g/ha (Lolium perenne (LOLPE) [23]): 50%; pest or weed control at 125 g/ha (Setaria faberi (SETFA) [24]): 90%
CCc1ccc(-c2ccc(Cl)cc2)cc1C1=C(O)[C@H]2CC[C@H](C2)C1=O [Compound T4, 3-(4′-chloro-4-ethylbiphen-3-yl)bicyclo[3.2.1]octane-2,4-dione]	50%	0%	50%	100%	90%	0	90%	0%	100%	100%	100%	0	100%	80%	100%	100%	100%	100%	80%	100%	pest or weed control at 125 g/ha [21]: 100%; pest or weed control at 125 g/ha [22]: 100%; pest or weed control at 125 g/ha (Lolium perenne (LOLPE) [23]): 100%; pest or weed control at 125 g/ha (Setaria faberi (SETFA) [24]): 100%
